From US20030162759A1, “Aldosterone blocker therapy to prevent or treat inflammation-related disorders” (priority 2000, published 2003)
“And” between values parts separate entries of the source, which are not always exact repeats. Equal entries are not always repeated. “Also recorded” adds a separate entry of the source.

Key:
Format in all cases: in vivo, rat
[1] = system: angiotensin II infused rats; test: Assay A angiotensin II infusion model: systolic blood pressure by tail-cuff; settings: Wistar rats, 1% NaCl, angiotensin II 25 ng/min sc; eplerenone 100 mpk; 4 weeks
Procedure: Assay A: In Vivo Angiotensin II Infusion Model
Male Wistar rats (n—50, 10/group; BW=200 g)
2. Angiotensin 11 (25 ng/min, sc via aizet minipump)
SBP measured by tail-cuff every week

[2] = system: aldosterone infused rats; test: Assay B aldosterone infusion model: systolic blood pressure by radio-telemetry; settings: saline-drinking, uni-nephrectomized Sprague Dawley rats, eplerenone 100 mpk p.o.
Procedure: Assay B: In vivo Aldosterone Infusion Model Male Sprague Dawley rats (n=39; BW=250 g) […] Uni-nephrectomy performed during implantation of mini-pumps 2. Aldosterone ([…], sc via aizet minipump) 2. […] 1. […] SBP measured by radio-telemetry probes inserted in the abdominal aorta Sacrifice after 4 weeks.

[3] = system: interstitial collagen; test: Assay C: interstitial collagen volume fraction (Picrosirius Red image analysis); settings: for Interstitial Collagen Volume Fraction: Table 9.14, 7-day protocol; for Collagen Volume Fraction (%), Mean: group mean; for ICVF (interstitial collagen volume fraction): eplerenone 100 mg/kg/day
Procedure: The procedure of Assay B was expanded upon in a further study. […] Myocardial tissue from animals in each treatment group was examined after 7, 14, or 30 days of treatment. […] Lesions were preceded by the expression and progressive upregulation of proinflammatory molecules. […] Prior to surgery the animals were individually weighed and placed in one of the following groups: […] Potassium chloride supplementation was added to the saline solution in order to prevent the potential hypokalemia associated with aldosterone excess. […] Louis, Mo.) was inserted subcutaneously at the nape of the neck. Aldosterone was administered at a dose of […]. […] Animals were sacrificed from each group (n=8-13) after 7, 14, or 30 days of treatment. The equatorial regions of the heart were routinely processed into paraffin with an automated tissue processor (Hypercenter XP, Shandon/Lipshaw Inc., Pittsburgh, Pa.) and embedded into fresh paraffin apical side down (Shandon Embedding Center, Shandon/Lipshaw Inc.). […] Ten m sections were stained with the collagen specific stain, Picrosirius Red F3BA (Saturated Picric Acid (Sigma Chemical, St. […] Waterbury, Conn.) (6). Mounted tissues were hydrated with water. […] Slides were coverslipped with #1 cover glass using Permount Histological Mounting Media (Fisher Scientific). Two slides mounted with 5 m sections were cut for each animal. One slide was processed for H&E staining and one for Periodic Acid Schiff (PAS) staining. The H&E and PAS were used for pathological scoring of the hearts. Picrosirius Red F3BA stained slides were used to quantify interstitial collagen with a Videometric 150 Image Analysis System (Oncor Inc., Gaitherburg, Md.). […] Garden City, N.Y.) attached to a Nikon Optiphot microscope (Nikon Inc.). A Toshiba 3 CCD Color Video Camera (Model#[…] Corp. Japan) relayed the images in RGB format from the microscope to a 386 computer with a […] video board. The […] video board/[…] software application (Oncor Inc.) converted RGB images to HIS (Hue, Intensity, Saturation) format for display and analysis on a Sony Trinitron Color Video Monitor (Model#PVM-1342Q, Sony Corp, Tokyo, Japan) at a magnification of 305×. […] The […] application then measured only pixels which fell into thresholding limits. The system was calibrated with a micrometer scale (EM Sciences, FT. Washington, Pa. 19034), which allowed data to be expressed in mm^2 or m^2.

[4] = system: cyclooxygenase-2 (COX-2); test: Assay C: COX-2 relative mRNA expression in heart (TaqMan); settings: for COX-2, Mean / COX-2: mRNA; for COX-2, Mean: group mean; for COX-2: individual rats; for COX-2 mRNA expression in myocardium: time course 7, 14, 30 days, eplerenone 100 mg/kg/day
Procedure: The procedure of Assay B was expanded upon in a further study. […] Myocardial tissue from animals in each treatment group was examined after 7, 14, or 30 days of treatment.
Potassium chloride supplementation was added to the saline solution in order to prevent the potential hypokalemia associated with aldosterone excess.
At the time of the surgery, an Alzet 2002 osmotic minipump (Alza Corp., Palo Alto, Calif.) containing either vehicle (9% ethanol/87% propylene glycol/4% dH2O) or 1.0 mg/mL d-aldosterone (Sigma Chemical, St. Louis, Mo.) was inserted subcutaneously at the nape of the neck. Aldosterone was administered at a dose of 0.75 g/hour. […] Animals were sacrificed from each group (n=8-13) after 7, 14, or 30 days of treatment.
The fluorogenic 5′-nuclease assay (TaqMan PCR) using Applied Biosystems' 7700 Sequence Detection System (Applied Biosystems, Foster City, Calif.) allowed for real time detection/quantitation of a specific gene by monitoring the increase in fluorescence of a gene-specific, dye-labeled oligonucleotide probe. Probes for target and reference genes were labeled at the 5′-end with a 6-carboxyfluorescein (6FAM) reporter dye and at the 3′-end with a 6-carboxy-N,N,N′,N′-tetramethylrhodamine (TAMRA) quencher dye. When the probe was annealed to the target gene, fluorescence of 6FAM was prevented by the close proximity of TAMRA. The exonuclease activity of Taq polymerase released the dyes from the oligonucleotide probe by displacing the probe from the target sequence resulting in fluorescence excitation in direct proportion to the amount of target message present. Data analysis was performed using the Sequence Detection System software from Applied Biosystems.
All primers and probes were designed using Primer Express software supplied with the 7700 Sequence Detection System and synthesized by Applied Biosystems. Standard curves using 5-fold dilutions of total RNA (from 200 ng to 320 pg) were performed to determine the efficiency of each primer/probe set in the TaqMan reaction prior to the analysis of the experimental samples. Primer/probe sets were designed from known sequences of rat genes to be analyzed. All target gene values were normalized to a reference gene, constitutively expressed cyclophilin. Primer/probe set sequences can be found in Table 8.
RNA was extracted from frozen (−80° C.) rat heart tissue using the Totally RNA Isolation Kit (Ambion, Inc., Austin, Tex.). Tissue was crushed using a stainless steel mortar and pestle, which had been chilled to −80° C. and transferred to a dounce homogenizer (Kontes, Vineland, N.J.) containing 3-10 mL cold denaturation buffer. Tissue was homogenized and transferred to a sterile, 15 mL polypropylene centrifuge tube. An equal volume of phenol:chloroform:isoamyl alcohol (25:24:1) was added, samples were shaken vigorously for 1 min, and incubated on ice for at least 15 min. Samples were centrifuged for 30 min at 10,000 g. The aqueous phase was removed, 1/10 volume of a sodium acetate solution (3.0 M NaOAc pH 4.5) was added, samples were shaken or inverted for 10 seconds, and acid-phenol (premixed with isoamyl alcohol):chloroform (5:1, Ambion, Inc.) was added at an volume equivalent to the starting sample volume. Samples were shaken vigorously for 1 min, followed by a 15-min incubation on ice, and centrifuged for 30 min at 10,000 g. The aqueous phase removed and placed in a clean polypropylene tube. An equal volume of isopropanol (Sigma, St. Louis, Mo.) was added and the samples were mixed and incubated overnight at −20° C. The samples were centrifuged for 30 min at 10,000 g, the supernatant was removed and the RNA pellet was resuspended in DNAse/RNAse-free water. Samples were frozen at −80° C. for at least 2 hours, thawed on wet ice, and diluted for quantitation.

Row | Structure (SMILES) | Systolic Blood Pressure [1] | Systolic Blood Pressure [2] | Interstitial Collagen Volume Fraction ([3]; group Mean) [%] | Interstitial Collagen Volume Fraction ([3]; individual rats, listed as Aldosterone + salt) | Collagen Volume Fraction (%), Mean ([3]; 14 days of treatment) [%] | Collagen Volume Fraction (%), Mean ([3]; 30 days of treatment) [%] | ICVF (interstitial collagen volume fraction) ([3]; mean ± SEM after 7 days of treatment) [%] | ICVF (interstitial collagen volume fraction) ([3]; mean ± SEM after 14 days of treatment) [%] | ICVF (interstitial collagen volume fraction) ([3]; mean ± SEM after 30 days of treatment) [%] | COX-2, Mean ([4]; 14 days of treatment) [AU] | COX-2, Mean ([4]; 30 days of treatment) [AU] | COX-2 ([4]; 7 days of treatment, listed as Aldosterone + salt) | COX-2 ([4]; 14 days of treatment, listed as Aldosterone + salt) | COX-2 ([4]; 30 days of treatment, listed as Aldosterone + salt) | COX-2 mRNA expression in myocardium [4] | COX-2, Mean ([4]; 7 days of treatment) [AU] | COX-2 ([4]; 7 days of treatment, listed as Eplerenone + aldosterone + salt) | COX-2 ([4]; 14 days of treatment, listed as Eplerenone + aldosterone + salt) | COX-2 ([4]; 30 days of treatment, listed as Eplerenone + aldosterone + salt)
1 | C[C@]12CCC(=O)C=C1CC[C@@H]1[C@@H]2[C@@H](O)C[C@]2(C=O)[C@@H](C(=O)CO)CC[C@@H]12 [aldosterone] | increased blood pressure | Systolic blood pressure increased | 5.6 | 3.2% and 6.5% (2×) and 6.1% and 6.9% and 4.4% and 3.1% | 5.1 | 7.9 | 5.6 ± 0.6 | 5.1 ± 0.5 | 7.9 ± 1.0 | 4.34 | 4.53 | 2.10 AU and 0.70 AU and 0.82 AU | 5.80 AU and 4.18 AU | 3.10 AU and 8.20 AU | significantly increased |  |  |  | 
2 | COC(=O)[C@@H]1CC2=CC(=O)CC[C@]2(C)[C@@]23O[C@@H]2C[C@@]2(C)[C@@H](CC[C@@]24CCC(=O)O4)[C@H]13 [eplerenone, Pregn-4-ene-7,21-dicarboxylic acid, 9,11-epoxy-17-hydroxy-3-oxo-, γ-lactone, methyl ester, (7α, 11α, 17β) -] | Neither eplerenone nor adrenalectomy reduced blood pressure | significantly reduced, but did not normalize blood pressure; also recorded: depression of this elevation |  |  | 4.5 | 6.2 |  |  |  | 2.02 | 2.28 |  |  |  | inhibition of early time-course expression of myocardial COX-2; also recorded: significantly reduced | 1.25 | 1.19 AU and 0.60 AU (2×) and 0.82 AU and 0.91 AU | 0.70 AU and 0.99 AU and 0.86 AU | 0.55 AU and 1.34 AU
